US20250332158A1, “COMPOSITION FOR PROMOTING MITOPHAGY ACTIVITY COMPRISING ISOQUINOLINE DERIVATIVE COMPOUND AS ACTIVE INGREDIENT AND USE THEREOF” (ALTMEDICAL CO., LTD., priority 2022, published 2025)
“Also recorded” adds a separate entry of the source. Read-outs that look alike come from different tables or passages of the source.

Experiments:
[1] = tested on: human normal lung cell line BEAS-2B; experiment: colony forming assay (cytotoxicity); type: cell-based
Method: A colony forming assay was performed to confirm the cytotoxicity of the novel isoquinoline derivatives of the present disclosure. Specifically, the isoquinoline derivatives were treated to the human normal lung cell line BEAS-2B for 24 hours, followed by culturing for 2 weeks to analyze the colony formed. As controls, a control group (con) that was not treated with anything and a positive control treated with CCCP, which induces mitophagy activity but also causes mitochondrial dysfunction and toxicity, were used.

[2] = tested on: human normal lung cell line BEAS-2B; experiment: mitophagy activity by mt-Keima (mitokeyma) fluorescent protein quantification, flow cytometry; type: cell-based; settings: for mitophagy activity compared to the con group / concentration showing maximum mitophagy activity: BEAS-2B; for mitophagy activity compared to the con group: 20 µM, 24 hours, flow cytometer (FIG. 2A); for concentration showing maximum mitophagy activity: concentration series (FIG. 2B); for times higher mitophagy activity than CD1-012: from concentrations of maximum mitophagy activity
Description: By utilizing these characteristics, mt-Keima can be expressed specifically in mitochondria, and by performing integrated analysis of the fluorescence signals at 458 nm and 561 nm, the fluorescence signal can be analyzed when mitochondria in a neutral environment (pH=7.4-7.8) are converted to an acidic environment (pH=4.5) by lysosomes delivered from mitophagy, allowing for quantitative measurement of mitophagy activity.
Specifically, a mitokeyma fluorescent protein quantification method, which allows for the quantitative measurement of mitophagy activity in living cells, was used. […] After treatment, the activity of mitophagy was measured using a flow cytometer. As a negative control, a control group (Control, con) without compound treatment was used, and as a positive control, CCCP (10 μM), which experimentally induces mitophagy activity, and CD1-012, a precursor of the compound of the present disclosure known to induce mitophagy activity, were used.

| Compound | mitophagy activity compared to the con group [2] | other results |
| --- | --- | --- |
| N#CC(C#N)=NNc1cccc(Cl)c1 [CCCP, reference compound] |  | size and number of colonies (cytotoxicity) [1]: decrease in both the size and number of colonies |
| Oc1cc2c(cc1O)-c1cc3ccc(O)c(O)c3c[n+]1CC2 [CD1-271] | promote the activity of mitophagy |  |
| COc1ccc2c(c1OC)CN1CCc3cc4c(cc3C1=C2)OCO4 [CD1-363] | promote the activity of mitophagy |  |
| Oc1cc2c(cc1O)C1=Cc3ccc(O)c(O)c3CN1CC2 [CD1-367] | promote the activity of mitophagy | size and number of colonies (cytotoxicity) ([1]; BEAS-2B, treated 24 hours, cultured 2 weeks (FIG. 4)): except for CD1-367, did not exhibit cytotoxicity |
| C=CCc1c2[n+](cc3c(OC)c(OC)ccc13)CCc1cc3c(cc1-2)OCO3 [CD1-386] | best mitophagy activity promotion; also recorded: promote the activity of mitophagy | concentration showing maximum mitophagy activity [2]: 5 µM; times higher mitophagy activity than CD1-012 [2]: 4 times |
| COc1ccc2c(Cc3ccccc3)c3[n+](cc2c1OC)CCc1cc2c(cc1-3)OCO2 [CD1-404] | promote the activity of mitophagy |  |
| CCc1c2[n+](cc3c(OC)c(OC)ccc13)CCc1cc3c(cc1-2)OCO3 [CD1-409] | best mitophagy activity promotion; also recorded: promote the activity of mitophagy | concentration showing maximum mitophagy activity [2]: 10 µM; times higher mitophagy activity than CD1-012 [2]: 2 times |
